Assay [1] deals with L1210. In words: Inhibitory concentration to reduce the growth of L1210 cells by 50% after 70 hr. The following applies: Mus musculus, L1210, 70 h. It is filed as functional, cell-based.
Assay [2] has as its system L1210. In words: Dose of the drug (mol /kg) providing a 50% life extension in L1210 assays when given at qd 1-5 schedule. It is filed as functional, Mus musculus.

Compound `CS(=O)(=O)Nc1ccc(Nc2c3ccccc3nc3ccccc23)cc1` showed an IC50 in the assay on L1210 [1] of 0.035 µM. In other words, the double-digit nanomolar range.

Turning to `CCNc1ccc(Nc2c3ccccc3nc3ccccc23)cc1`, the IC50 in the assay on L1210 [1] stood at 0.25 µM. Against the preceding compound, the IC50 is about 7.1-fold higher.

`CC(=O)Nc1ccc(Nc2c3ccccc3nc3ccccc23)cc1` had an IC50 in the assay with L1210 [1] of 0.1 µM.

The compound `O=S(=O)(Nc1ccc(Nc2c3ccccc3nc3ccccc23)cc1)c1ccccc1` came in with an IC50 in the assay on L1210 [1] of 0.0035 µM. This IC50 is about 29-fold lower than that of the compound before.

In the assay on L1210 [1], `CNc1ccc(Nc2c3ccccc3nc3ccccc23)cc1` returned an IC50 of 0.18 µM.

In the case of `COC(=O)Nc1ccc(Nc2c3ccccc3nc3ccccc23)cc1`, half-maximal inhibition in the assay with L1210 [1] (IC50) was put at 0.06 µM. Against the preceding compound, the IC50 is about 3-fold lower.

`Nc1ccc(Nc2c3ccccc3nc3ccccc23)cc1`: in the assay on L1210 [1], the IC50 came out at 0.35 µM.

Turning to `CN(C)c1ccc(Nc2c3ccccc3nc3ccccc23)cc1`, in the assay on L1210 [1], the IC50 stood at 0.6 µM.

`Oc1ccc(Nc2c3ccccc3nc3ccccc23)cc1` showed an IC50 in the assay on L1210 [1] of 0.25 µM.

Regarding `COP(=O)(Nc1ccc(Nc2c3ccccc3nc3ccccc23)cc1)OC`, the midpoint of inhibition in the assay on L1210 [1], the IC50, lay at 0.015 µM. Further, the “Log 1/D50” value with L1210 [2] was found to be 4.46.

Compound `O=C(Nc1ccc(Nc2c3ccccc3nc3ccccc23)cc1)c1ccccc1` yielded an IC50 in the assay with L1210 [1] of 0.02 µM. This lies in the double-digit nanomolar range.

As usually defined, the IC50 is the point on the concentration scale where inhibition reaches its midpoint.

These data come from ChEMBL document CHEMBL1123690, “Redox chemistry of the 9-anilinoacridine class of antitumor agents” (J Med Chem, 1987).
